The text below walks through data of patent publication US4783462A, “3(2H)pyridazinone, and anti-allergic agent containing it” (Nissan Chemical Industries Ltd., priority 1985, dated 1988).

One data set concerns LTC4. Kind of data set: Antagonism in isolated guinea-pig trachea, Test method (i) (Table 3, given as LTC4 antagonism). The data set is classed as cell-based. The settings on record: Cavia porcellus, 5 min, test compound 10^-5 g/ml, given as LTC4 antagonisms. The protocol:
(i) LTC4 and LTD4 antagonisms in guinea-pig trachea
Antagonisms for LTC4 and LTD4 were determined in isolated guinea-pig trachea prepared as spiral strip. Tracheal preparations were suspended under 1 g tension in 10 ml organ baths and they were incubated for 1 hr prior to use. Contractile responses to LTC4 (2×10^-8 g/ml) and LTD4 (2×10^-8 g/ml) were obtained after the maximal response to histamine (10^-4 M). Test compounds dissolved in 100% dimethyl sulfoxide were added to the organ baths (final concentration of 10^-5 g/ml or 10^-6 g/ml) 5 min prior to LTC4 and LTD4 addition, and then contractile responses to LTC4 and LTD4 were compared with those of control which was obtained from a paired trachea in the absence of test compounds. LTC4 - and LTD4 -induced contractions were expressed as a percentage of the maximal response to histamine. The antagonism was determined as follows:
(§1) Antagonism (%)=(1.0-% contraction in test/% contraction in […]

For another data set, the system named is LTD4. The experiment in a line: LTD4 antagonism in isolated guinea-pig trachea with indomethacin, Test method (ii) (Table 4). The data set is classed as cell-based. The settings on record: Cavia porcellus, 0.5 h, LTD4 2×10^-8 g/ml, test compound 10^-6 g/ml, 30 min prior, 5 μmol indomethacin. How it is done: (ii) LTD4 antagonism in guinea-pig trachea
Antagonism for LTD4 was determined in isolated guinea-pig trachea prepared as spiral strip. Tracheal preparations were suspended under 1 g tension in 10 ml organ baths containing 5 μmol of indomethacin and they were incuated for 1 hr prior to use. Contractile responses to LTD4 (2×10^-8 g/ml) were obtained after the maximal response to histamine (10^-4 M). Test compounds dissolved in 100% dimethyl sulfoxide were added to the organ baths (final concentration of 10^-6 g/ml) 30 min prior to LTD4 addition, and then contractile responses to LTD4 were compared with those of control which was obtained from a paired trachea in the absence of test compounds. LTD4 -induced contractions were expressed as a percentage of the maximal response to histamine. The antagonism was determined as follows:
as §1

The test system of another data set is ddY strain male mice. Kind of data set: Acute toxicity test, Test method-(2), intraperitoneal. The data set is classed as in vivo. The settings on record: 7 days. How it is done:
The lethal ratio was determined in ddY strain male mice (4 weeks old) at 7 days after the intraperitoneal injection of test compounds.

Data set [1] concerns anaphylactic bronchoconstriction in passively sensitized guinea-pig. Kind of data set: Effect on anaphylactic bronchoconstriction in passively sensitized guinea-pig. The data set is classed as in vivo. The settings on record: 2 mg/kg i.v. The protocol: (iii) Effect on anaphylactic bronchoconstriction in passively sensitized guinea-pig
Male guinea-pigs (350-450 g) were passively sensitized with intravenous (i.v.) injection of 0.125 ml rabbit anti-EA (egg albumin) serum (Cappel Laboratories) 1 day preceding the experiment. […] Sensitized guinea-pigs were anaesthetized with intraperitoneal injection of urethane (1.5 g/kg). The right jugular vein was cannulated for the administration of the all agents and trachea was cannulated to record total pulmonary resistance. Guinea-pigs were artificially ventilated by a small animal respirator (Shinano, Model SN-480-7) set at a stroke volume of 5 ml and a rate of 50 breaths per min. […] The increase in air overflow volume was expressed as a percentage of the maximum bronchoconstriction obtained by clamping off the trachea. Following surgical preparation, the animals were pretreated with indomethacin (1.0 mg/kg, 10 min), pyrilamine (2 mg/kg, 6 min) and propranolol (0.1 mg/kg, 5 min) prior to the EA challenge (0.1 or 10 mg/kg). All test compounds, 2 mg/kg in 3% Tween 80 or 3% PEG-400, were administered 1 min before the EA challenge. Inhibition (%) of bronchoconstriction was determined as follows: Inhibition (%)=(1.0%-maximum bronchoconstriction in test/% maximum bronchoconstriction in control)×100. The maximum bronchoconstriction was obtained within 20 min after the EA challenge.
In the Table, the dose of EA was 10 mg/kg, and each compound was dissolved or suspended in 3% Tween 80.
The dose of EA was 0.1 mg/kg.

Setting [2] is: Table 5-(2), EA 0.1 mg/kg, Tween 80.
The mark [3] stands for this setting: Table 5-(1), EA 10 mg/kg, 3% Tween 80.
Setting [4] is: Table 5-(2), EA 0.1 mg/kg, PEG-400.

Consider `CCCc1cc(C(=O)OC)ccc1OCCCNc1cnn(C(C)C)c(=O)c1Cl` [Compound No. 44, 4-choloro-5-[3-(2-n-propyl-4-methoxycarbonylphenoxy)propylamino]-2-i-propyl-3(2H)pyridazinone], for which the inhibition (in general, the relative decrease from the control value, in per cent) at 10 µg/mL in the data set on LTC4 is 90%. The inhibition at 1 µg/mL in the data set on LTD4 is 63%. For the same compound, the “Lethal ratio (Death number/Experimental number)” value with ddY strain male mice (200 mg/kg intraperitoneal) and in the data set on ddY strain male mice (400 mg/kg intraperitoneal) was 0/1 throughout.
For the compound `CCCc1cc(C(=O)OCC)ccc1OCCCNc1cnn(C(C)C)c(=O)c1Cl` [Compound No. 64, 4-chloro-5-[3-(2-n-propyl-4-ethoxycarbonylphenoxy)propylamino]-2-i-propyl-3(2H)pyridazinone], the inhibition at 10 µg/mL with LTC4 came to 87%. In data set [1] (setting [2]), the “Inhibition (%)” value was 56%.
`CCCc1cc(C(=O)O)ccc1OCCCNc1cnn(C(C)C)c(=O)c1Cl` [Compound No. 67] returned an inhibition at 10 µg/mL in the data set with LTC4 of 99%. The “Inhibition (%)” value in data set [1] (setting [2]) is 62%.
Consider `CCc1cc(C#N)ccc1OCCCNc1cnn(C(C)C)c(=O)c1Cl` [Compound No. 98], for which the inhibition at 10 µg/mL in the data set with LTC4 was found to be 89%. Further, in the data set on LTD4, the inhibition at 1 µg/mL came to 80%.
In the data set on LTC4, `CCCc1cc(C(=O)OC)ccc1OCC(=O)CNc1cnn(C(C)C)c(=O)c1Cl` [Compound No. 161, 4-Chloro-5-[3-(2-n-propyl-4-methoxycarbonylphenoxy)-2-oxopropylamino]-2-i-propyl-3(2H)pyridazinone] displayed an inhibition at 10 µg/mL of 71%. For the same compound, in data set [1] (setting [2]), the “Inhibition (%)” value amounted to 20%.
Compound `CCCCc1cc(C#N)ccc1OCCCNc1cnn(CC)c(=O)c1Br` [Compound No. 181, 4-Bromo-5-[3-(2-n-butyl-4-cyanophenoxy)propylamino]-2-ethyl-3(2H)pyridazinone] returned an inhibition at 1 µg/mL with LTD4 of 70%.
`COc1cccc(OCCCOc2cnn(C(C)(C)C)c(=O)c2Cl)c1` [compound 27]: in the data set with LTC4, 10 µg/mL produced 65% inhibition. Further, the “Inhibition (%)” value in data set [1] (setting [3]) is given as 23%. In addition, the “Lethal ratio (Death number/Experimental number)” value with ddY strain male mice (100 mg/kg intraperitoneal) and with ddY strain male mice (200 mg/kg intraperitoneal) was 0/2 throughout.
As for `CCn1ncc(OCCCOc2cccc(OC)c2)c(Cl)c1=O` [compound 28], the inhibition at 10 µg/mL with LTC4 turned out to be 61%. Further, in data set [1] (setting [3]), the “Inhibition (%)” value is listed as 17%. Moreover, the figures for the “Lethal ratio (Death number/Experimental number)” value in the data set on ddY strain male mice (200 mg/kg intraperitoneal) and in the data set on ddY strain male mice (400 mg/kg intraperitoneal) were 0/2 and 0/1, respectively.
With `CCCc1cc(C(=O)OC)ccc1OCCCNc1cnn(C)c(=O)c1Cl` [compound 43], the inhibition at 10 µg/mL with LTC4 amounted to 63%. In addition, in data set [1] (setting [3]), the “Inhibition (%)” value was 24%.
Turning to `CCOc1ccccc1OCCCNc1cnn(CC)c(=O)c1Cl` [compound 51], at 10 µg/mL the inhibition in the data set with LTC4 was 82%. In addition, the “Inhibition (%)” value in data set [1] (setting [3]) is listed as 15%.
In the data set with LTC4, `COc1ccc(CCNc2cnn(C(C)C)c(=O)c2Cl)cc1` [compound 55] had an inhibition at 10 µg/mL of 72%. Further, the “Inhibition (%)” value in data set [1] (setting [3]) came out at 26%.
On to `CCCc1cc(C#N)ccc1OCCCNc1cnn(C(C)C)c(=O)c1Cl` [compound 60], for which the inhibition at 10 µg/mL in the data set on LTC4 came to 98%. The “Inhibition (%)” value in data set [1] (setting [3]) is 15%.
`CCCc1cc(C#N)ccc1OCCCOc1cnn(CC)c(=O)c1Cl` [compound 65]: in the data set with LTC4, testing at 10 µg/mL gave an inhibition of 98%. For the same compound, in data set [1] (setting [2]), the “Inhibition (%)” value turned out to be 27%.
The corresponding values for `CCOc1ccccc1OCCCNc1cnn(C(C)C)c(=O)c1Cl` [compound 71] are 88% and 26%.
The matching figures for `CCCc1cc(C(=O)O)ccc1OCCCN(C)c1cnn(C(C)C)c(=O)c1Cl` [compound 74]: 73% and 50%.
`CCCc1cc(C(=O)OC)ccc1OCCCOc1cnn(C(C)C)c(=O)c1Cl` [compound 85]: 10 µg/mL produced 78% inhibition in the data set on LTC4. Further, the “Inhibition (%)” value in data set [1] (setting [2]) is recorded as 23%.
Turning to `CCc1cc(C(N)=O)ccc1OCCCNc1cnn(C(C)C)c(=O)c1Cl` [compound 102], 10 µg/mL produced 93% inhibition with LTC4. The “Inhibition (%)” value in data set [1] (setting [4]) is 73%.
The corresponding values for `CCn1ncc(NCCCOc2ccc(C(=O)OC)cc2C(C)C)c(Cl)c1=O` [compound 103] are 93% and 69%.
Turning to `CCCc1cc(OC)ccc1OCCCNc1cnn(C(C)C)c(=O)c1Cl` [compound 105], in the data set with LTC4, 10 µg/mL produced 89% inhibition. Further, in the data set with LTD4, 1 µg/mL produced 52% inhibition.
Compound `CCCc1cc(O)ccc1OCCCNc1cnn(C(C)C)c(=O)c1Cl` [compound 109] showed an inhibition at 10 µg/mL in the data set on LTC4 of 99%. Further, in the data set on LTD4, 1 µg/mL produced 69% inhibition.
For the compound `CCCCc1cc(C(=O)OC)ccc1OCCCNc1cnn(CC)c(=O)c1Cl` [compound 111], testing at 10 µg/mL in the data set with LTC4 gave an inhibition of 87%. The compound further returned an inhibition at 1 µg/mL in the data set on LTD4 of 79%.
The matching figures for `CCCCc1cc(C(=O)O)ccc1OCCCNc1cnn(CC)c(=O)c1Cl` [compound 113]: 100% and 54%.
In turn, `CCCCc1cc(C(N)=O)ccc1OCCCNc1cnn(CC)c(=O)c1Cl` [compound 115] gave an inhibition at 10 µg/mL with LTC4 of 94%. Also, the inhibition at 1 µg/mL with LTD4 stood at 61%.
As to `CCCc1cc(C(=O)OC)ccc1OCCCNc1cnn(C(C)C)c(=O)c1Br` [compound 124], the inhibition at 1 µg/mL with LTD4 is 92%.
Same read-out and setting: in the case of `CCCc1cc(C(=O)O)ccc1OCCCNc1cnn(C(C)C)c(=O)c1Br` [compound 125] it was 84%; in that of `CCCc1cc(OC)ccc1OCCCNc1cnn(CC)c(=O)c1Br` [compound 135], 57%; in that of `CCc1cc(OC)ccc1OCCCNc1cnn(CC)c(=O)c1Br` [compound 137], 53%.
As for `CCCc1cc(C(=O)OC)ccc1OCC(CNc1cnn(C(C)C)c(=O)c1Cl)OC` (stereo not drawn) [compound 162], the inhibition at 10 µg/mL with LTC4 came to 81%. For the same compound, the “Inhibition (%)” value in data set [1] (setting [2]) is recorded as 49%.
In the case of `CCCc1cc(C(=O)O)ccc1OCC(CNc1cnn(C(C)C)c(=O)c1Cl)OC` (stereo not drawn) [compound 163], 10 µg/mL produced 74% inhibition in the data set with LTC4. Besides, the “Inhibition (%)” value in data set [1] (setting [2]) is on record as 32%.
The matching figures for `CCCc1cc(C(=O)OC)ccc1OCC(CN(C)c1cnn(C(C)C)c(=O)c1Cl)OC` (stereo not drawn) [compound 164]: 71% and 40%.
In the data set with LTD4, `CCCCc1cc(C(=O)OC)ccc1OCCCNc1cnn(CC)c(=O)c1Br` [compound 178] returned an inhibition at 1 µg/mL of 69%.
The same measure, in the same setting: in the case of `CCCCc1cc(C(=O)O)ccc1OCCCNc1cnn(CC)c(=O)c1Br` [compound 179] it was 63%; in that of `CCCc1cc(O)ccc1OCCCNc1cnn(CC)c(=O)c1Br` [compound 197], 82%.
The compound `CCCc1cc(O)ccc1OCCCNc1cnn(C(C)C)c(=O)c1Br` [compound 198] gave an inhibition at 1 µg/mL in the data set with LTD4 of 86%.
Same read-out and setting: in the case of `CCc1cc(C=O)ccc1OCCCNc1cnn(CC)c(=O)c1Br` [compound 199] it was 65%; in that of `CCc1cc(C=O)ccc1OCCCNc1cnn(C(C)C)c(=O)c1Br` [compound 200], 81%.
Regarding `CCCCCc1cc(C(=O)O)ccc1OCCCNc1cnn(CC)c(=O)c1Cl` [compound 202], the inhibition at 1 µg/mL in the data set on LTD4 was 89%.
In turn, `CCCCCc1cc(C(N)=O)ccc1OCCCNc1cnn(CC)c(=O)c1Cl` [compound 203] came in with an inhibition at 1 µg/mL with LTD4 of 94%.
The same measure, in the same setting: under `CCCCCc1cc(C(=O)OC)ccc1OCCCNc1cnn(CC)c(=O)c1Br` [compound 204] stands 95%.
On the same count and under the same terms, in the case of `CCCCCc1cc(C(=O)O)ccc1OCCCNc1cnn(CC)c(=O)c1Br` [compound 205] it was 96%.
Compound `CCC(C)c1cc(C(=O)O)ccc1OCCCNc1cnn(CC)c(=O)c1Br` (stereo not drawn) [compound 218] showed an inhibition at 1 µg/mL with LTD4 of 84%.
